# Source: paper doi:10.1101/2025.08.21.671483v1, “In vitro and in vivo activity profiles of broad-spectrum bacterial ATP synthase inhibitors” (biorxiv, 2025)
# Like-named read-outs stand apart in the source and are kept apart here. Where a SMILES comes first, the peptide text is derived from it. Bridges are numbered along the chain shown (N, C = ends). [ ]: non-standard residue; d: D form. The star is where a group is joined. Heptanoyl(5-Me) = CCC(C)CCCC(=O)*; Dab = NCC[C@H](N)C(=O)O
# Experiments:
# [1] = tested on: T1, Citrobacterfreundii ATCC 8090; test: organism not typed; design: species or system bacteria; CLSI broth microdilution MIC, no visible growth; settings: read-out: Table 5 IMI MIC
# T1 construct: ATCC 8090
# E. coli ATCC 25922 [2] = tested on: T2, E. coli ATCC 25922; test: microbe, parasite or virus in culture; design: species or system bacteria; CLSI broth microdilution MIC, no visible growth; settings: Escherichia coli
# T2 construct: ATCC 25922
# E. coli MC4100 WT = tested on: T3, E. coli MC4100 WT; test: microbe, parasite or virus in culture; design: species or system bacteria; CLSI broth microdilution MIC, no visible growth; settings: Escherichia coli, MC4100WT
# T3 construct: MC4100 (ATCC 35695)
# [3] = tested on: T4, S. aureus ATCC 29740 (Newbould); test: microbe, parasite or virus in culture; design: species or system bacteria; CLSI broth microdilution MIC, no visible growth; settings: Staphylococcus aureus
# T4 construct: ATCC 29740 (Newbould)
# E. coli MC4100 lptD4213 = tested on: T5, E. coli MC4100 lptD4213; test: microbe, parasite or virus in culture; settings: Escherichia coli, MC4100LPTD4213, read-out: MIC
# T5 construct: MC4100 lptD4213 membrane-compromised
# E. coli MC4100 acrAB = tested on: T6, E. coli MC4100 acrAB; test: microbe, parasite or virus in culture; settings: Escherichia coli, MC4100ACRAB, read-out: MIC
# T6 construct: MC4100 acrAB efflux-deficient
# S. aureus ATCC 29740hemB = test: microbe, parasite or virus in culture; settings: Staphylococcus aureus, ATCC29740HEMB, read-out: MIC
# [4] = tested on: T7, Escherichia coli 70122 CW-2007; test: microbe, parasite or virus in culture; design: species or system bacteria; CLSI broth microdilution MIC, no visible growth
# T7 construct: 70122 CW-2007
# [5] = tested on: T8, Escherichia coli 95882 CW-2011; test: microbe, parasite or virus in culture; design: species or system bacteria; CLSI broth microdilution MIC, no visible growth
# T8 construct: 95882 CW-2011
# [6] = tested on: T9, Escherichia coli ATCC 35218; test: microbe, parasite or virus in culture; design: species or system bacteria; CLSI broth microdilution MIC, no visible growth
# T9 construct: ATCC 35218
# [7] = tested on: T10, Escherichia coli ATCC BAA2471; test: microbe, parasite or virus in culture; design: species or system bacteria; CLSI broth microdilution MIC, no visible growth
# T10 construct: ATCC BAA-2471
# Escherichia coli ec302 = tested on: T11, Escherichia coli ec302; test: microbe, parasite or virus in culture; design: species or system bacteria; CLSI broth microdilution MIC, no visible growth
# T11 construct: ec302
# Escherichia coli ec305 = tested on: T12, Escherichia coli ec305; test: microbe, parasite or virus in culture; design: species or system bacteria; CLSI broth microdilution MIC, no visible growth
# T12 construct: ec305
# Escherichia coli ec308 = tested on: T13, Escherichia coli ec308; test: microbe, parasite or virus in culture; design: species or system bacteria; CLSI broth microdilution MIC, no visible growth
# T13 construct: ec308
# Escherichia coli ec309 = tested on: T14, Escherichia coli ec309; test: microbe, parasite or virus in culture; design: species or system bacteria; CLSI broth microdilution MIC, no visible growth
# T14 construct: ec309
# Escherichia coli ec310 = tested on: T15, Escherichia coli ec310; test: microbe, parasite or virus in culture; design: species or system bacteria; CLSI broth microdilution MIC, no visible growth
# T15 construct: ec310
# E. coli ATCC 25922 [8] = tested on: T2, E. coli ATCC 25922; test: microbe, parasite or virus in culture; design: species or system bacteria; CLSI broth microdilution MIC, no visible growth; settings: Escherichia coli; remark: listed apart in the source
# S. aureus ATP synthase = target: T16, S. aureus ATP synthase (Staphylococcus aureus, UniProt Q99SF0); test: ATP production by membrane vesicles, luciferase luminescence; format: biochemical; settings: […] NADH, 1 mM ADP, 10 mM potassium phosphate; 30 min preincubation, 60 min reaction
# T16 construct: gene atpE
# Excerpt: ATP production by membrane vesicles, luciferase luminescence on S. aureus ATP synthase
# E. coli ATP synthase = target: T17, E. coli ATP synthase (Escherichia coli, UniProt P68699); test: as above; format: biochemical; settings: […] NADH, 1 mM ADP, 10 mM potassium phosphate; 30 min preincubation, 60 min reaction
# T17 construct: gene atpE
# Excerpt: ATP production by membrane vesicles, luciferase luminescence on E. coli ATP synthase
structure (smiles),measurement,setting,value
"C[C@@H](O)[C@H]1C(=O)N2C(C(=O)O)=C(SCCNC=N)C[C@H]12 [IMI, imipenem]",MIC,[1],1 µg/mL
"C[C@H]1CC[C@]2(NC1)O[C@H]1C[C@H]3[C@@H]4CC[C@H]5C[C@@H](O)CC[C@]5(C)[C@H]4CC[C@]3(C)[C@H]1[C@@H]2C [TO, tomatidine]",MIC,"E. coli ATCC 25922 [2]; ATCC25922, read-out: TO MIC",> 128 µg/mL
same,MIC,E. coli MC4100 WT; read-out: TO MIC,> 128 µg/mL
same,MIC,"[3]; ATCC29740, read-out: TO MIC",> 128 µg/mL
same,MIC,E. coli MC4100 lptD4213,> 128 µg/mL
same,MIC,E. coli MC4100 acrAB,> 128 µg/mL
same,MIC,S. aureus ATCC 29740hemB,≤ 0.25 µg/mL
"C[C@@H](O)[C@H]1C(=O)N2C(C(=O)O)=C(S[C@@H]3CN[C@H](C(=O)N(C)C)C3)[C@H](C)[C@H]12 [MEM, meropenem]",MIC,"[4]; 70122CW2007, read-out: MEM MIC",0.06 µg/mL
same,MIC,"[5]; 95882CW2011, read-out: MEM MIC",4 µg/mL
same,MIC,"[6]; ATCC35218, read-out: MEM MIC",0.06 µg/mL
same,MIC,"[7]; ATCCBAA2471, read-out: MEM MIC",> 32 µg/mL
same,MIC,"Escherichia coli ec302; EC302, read-out: MEM MIC",0.06 µg/mL
same,MIC,"Escherichia coli ec305; EC305, read-out: MEM MIC",0.06 µg/mL
same,MIC,"Escherichia coli ec308; EC308, read-out: MEM MIC",0.06 µg/mL
same,MIC,"Escherichia coli ec309; EC309, read-out: MEM MIC",0.06 µg/mL
same,MIC,"Escherichia coli ec310; EC310, read-out: MEM MIC",0.06 µg/mL
same,MIC,"E. coli ATCC 25922 [8]; ATCC25922, read-out: MEM MIC",0.06 µg/mL
C[C@H]1CC[C@]2(NC1)O[C@H]1C[C@H]3[C@@H]4CC[C@H]5CC(NC[C@H](N)Cc6c[nH]c7ccccc67)CC[C@]5(C)[C@H]4CC[C@]3(C)[C@H]1[C@@H]2C (stereo partly drawn) [TM-247],IC50,S. aureus ATP synthase,1060 ± 240 nM
same,IC50,E. coli ATP synthase,2120 ± 320 nM
same,MIC,"E. coli ATCC 25922 [2]; ATCC25922, read-out: TM-247 MIC",8 µg/mL
same,MIC,E. coli MC4100 WT; read-out: TM-247 MIC,16 µg/mL
same,MIC,"[3]; ATCC29740, read-out: TM-247 MIC",2 µg/mL
same,MIC,E. coli MC4100 lptD4213,2 µg/mL
same,MIC,E. coli MC4100 acrAB,4 µg/mL
same,MIC,S. aureus ATCC 29740hemB,≤ 0.25 µg/mL
"CC(C)(O/N=C(\C(=O)N[C@@H]1C(=O)N2C(C(=O)[O-])=C(C[n+]3ccccc3)CS[C@H]12)c1csc(N)n1)C(=O)O [CAZ, ceftazidime]",MIC,"[4]; 70122CW2007, read-out: CAZ MIC",64 µg/mL
same,MIC,"[5]; 95882CW2011, read-out: CAZ MIC",128 µg/mL
same,MIC,"[6]; ATCC35218, read-out: CAZ MIC",0.25 µg/mL
same,MIC,"[7]; ATCCBAA2471, read-out: CAZ MIC",> 128 µg/mL
same,MIC,"Escherichia coli ec302; EC302, read-out: CAZ MIC",> 128 µg/mL
same,MIC,"Escherichia coli ec305; EC305, read-out: CAZ MIC",1 µg/mL
same,MIC,"Escherichia coli ec308; EC308, read-out: CAZ MIC",128 µg/mL
same,MIC,"Escherichia coli ec309; EC309, read-out: CAZ MIC",64 µg/mL
same,MIC,"Escherichia coli ec310; EC310, read-out: CAZ MIC",64 µg/mL
same,MIC,"E. coli ATCC 25922 [8]; ATCC25922, read-out: CAZ MIC",0.12 µg/mL
C[C@H]1CC[C@]2(NC1)O[C@H]1C[C@H]3[C@@H]4CC[C@H]5CC(NC[C@H](N)Cc6ccc(C(F)(F)F)cc6)CC[C@]5(C)[C@H]4CC[C@]3(C)[C@H]1[C@@H]2C (stereo partly drawn) [TM-303],IC50,S. aureus ATP synthase,1320 ± 220 nM
same,IC50,E. coli ATP synthase,3150 ± 730 nM
same,MIC,"E. coli ATCC 25922 [2]; ATCC25922, read-out: TM-303 MIC",8 µg/mL
same,MIC,E. coli MC4100 WT; read-out: TM-303 MIC,16 µg/mL
same,MIC,"[3]; ATCC29740, read-out: TM-303 MIC",4 µg/mL
same,MIC,E. coli MC4100 lptD4213,2 µg/mL
same,MIC,E. coli MC4100 acrAB,4 µg/mL
same,MIC,S. aureus ATCC 29740hemB,≤ 0.25 µg/mL
"O=C1CN(/N=C/c2ccc([N+](=O)[O-])o2)C(=O)N1 [NIT, nitrofurantoin]",MIC,"[4]; 70122CW2007, read-out: NIT MIC",32 µg/mL
same,MIC,"[5]; 95882CW2011, read-out: NIT MIC",8 µg/mL
same,MIC,"[6]; ATCC35218, read-out: NIT MIC",0.25 µg/mL
same,MIC,"[7]; ATCCBAA2471, read-out: NIT MIC",32 µg/mL
same,MIC,"Escherichia coli ec302; EC302, read-out: NIT MIC",16 µg/mL
same,MIC,"Escherichia coli ec305; EC305, read-out: NIT MIC",8 µg/mL
same,MIC,"Escherichia coli ec308; EC308, read-out: NIT MIC",8 µg/mL
same,MIC,"Escherichia coli ec309; EC309, read-out: NIT MIC",16 µg/mL
same,MIC,"Escherichia coli ec310; EC310, read-out: NIT MIC",8 µg/mL
same,MIC,"E. coli ATCC 25922 [8]; ATCC25922, read-out: NIT MIC",8 µg/mL
"CN(C)[C@@H]1C(O)=C(C(N)=O)C(=O)[C@@]2(O)C(O)=C3C(=O)c4c(O)cccc4[C@@](C)(O)[C@H]3C[C@@H]12 [TET, tetracycline]",MIC,"[5]; 95882CW2011, read-out: TET MIC",1 µg/mL
same,MIC,"[6]; ATCC35218, read-out: TET MIC",0.25 µg/mL
same,MIC,"[7]; ATCCBAA2471, read-out: TET MIC",128 µg/mL
same,MIC,"Escherichia coli ec302; EC302, read-out: TET MIC",2 µg/mL
same,MIC,"Escherichia coli ec305; EC305, read-out: TET MIC",> 128 µg/mL
same,MIC,"Escherichia coli ec308; EC308, read-out: TET MIC",128 µg/mL
same,MIC,"Escherichia coli ec309; EC309, read-out: TET MIC",2 µg/mL
same,MIC,"Escherichia coli ec310; EC310, read-out: TET MIC",2 µg/mL
same,MIC,"E. coli ATCC 25922 [8]; ATCC25922, read-out: TET MIC",1 µg/mL
"CCC(C)CCCC(=O)N[C@@H](CCN)C(=O)N[C@H](C(=O)N[C@@H](CCN)C(=O)N[C@H]1CCNC(=O)[C@H]([C@@H](C)O)NC(=O)[C@H](CCN)NC(=O)[C@H](CCN)NC(=O)[C@H](CC(C)C)NC(=O)[C@@H](CC(C)C)NC(=O)[C@H](CCN)NC1=O)[C@@H](C)O (stereo partly drawn) [CST, colistin] ({Heptanoyl(5-Me)}-[Dab]T[Dab][Dab][Dab][dL]L[Dab][Dab]T; lactam 4-C)",MIC,"[4]; 70122CW2007, read-out: CST MIC",1 µg/mL
same,MIC,"[5]; 95882CW2011, read-out: CST MIC",0.5 µg/mL
same,MIC,"[6]; ATCC35218, read-out: CST MIC",2 µg/mL
same,MIC,"[7]; ATCCBAA2471, read-out: CST MIC",1 µg/mL
same,MIC,"Escherichia coli ec302; EC302, read-out: CST MIC",0.5 µg/mL
same,MIC,"Escherichia coli ec305; EC305, read-out: CST MIC",0.5 µg/mL
same,MIC,"Escherichia coli ec308; EC308, read-out: CST MIC",0.5 µg/mL
same,MIC,"Escherichia coli ec309; EC309, read-out: CST MIC",1 µg/mL
same,MIC,"Escherichia coli ec310; EC310, read-out: CST MIC",1 µg/mL
same,MIC,"E. coli ATCC 25922 [8]; ATCC25922, read-out: CST MIC",1 µg/mL
